In patent US8101732B2, “Methods of producing validamycin A analogs and uses thereof” (State of Oregon acting by and through the State Board of …, priority 2008, dated 2012):

Tested on: Pellicularia sasakii (=R. solani)
Assay: Fungal growth inhibitory assay (agar plug assay)
Type: cell-based
Conditions: growth monitored after two days, FIG. 4
Procedure: Fungal growth inhibitory assay of 1,1′-bis-valienamine (3) and validienamycin (4): 1% agar (14 mL) was mixed with the compounds (dissolved in 1 mL H2O) and then plated into Petri dishes. Discs of PDA agar with mycelia of Pellicularia sasakii were placed in the center of the above plates as the indicator strain for bioassay of the compounds. The plates were incubated at 30° C. for 2 days.
Antifungal activity assays of compounds 3 and 4 were tested against Pellicularia sasakii (=R. solani) using an agar plug assay (Minagawa et al., Chembiochem 8: 632-641, 2007). Agar plugs with diameter of 5 mm and containing P. sasakii mycelia were placed in the center of agar plates that contain each compound and the growth of the pathogen was monitored after two days. Active compounds were determined based on their ability to inhibit the expansion of the fungal mycelia on the Petri dishes.

SMILES	fungistatic activity (inhibition of expansion of the fungal mycelia) (lower concentration (0.02 mM) in agar plate)	fungistatic activity (inhibition of expansion of the fungal mycelia) (0.2 mM concentration in agar plate)
OCC1=C[C@H](N[C@H]2C[C@H](CO)[C@@H](O[C@@H]3OC(CO)[C@@H](O)C(O)[C@H]3O)[C@H](O)[C@H]2O)[C@H](O)[C@@H](O)[C@@H]1O (some centres unmarked) [Compound 1, validamycin A]	the most active compound among those evaluated	–
OCC1=C[C@H](N[C@H]2C=C(CO)[C@@H](O)[C@H](O)[C@H]2O)[C@H](O)[C@@H](O)[C@@H]1O [Compound 4, validienamycin]	–	comparable fungistatic activity with 1 and 2
